Experimental data reported in patent EP0608419A1, “TRANSOCULAR PREPARATION” (FUJISAWA PHARMACEUTICAL CO., LTD., priority 1991, dated 1993).
Where two headings read alike, the source gives them in different places.

Tests used:
[1] = Concentration of test compound in eye tissue and blood after continuous subcutaneous administration by implanted mini-pump (EIA); format: in vivo, JW (clean) strain female rabbits; settings: sc, 2.5 mg/animal/day, read-out: Mean concentration in tissue ± S.E.
Experimental: (§1) c The experiment was carried out using JW (clean) strain female rabbits (body weight: 2.3 to 2.6 kg), each test group containing three rabbits. In this experiment, the rabbits were allowed to feed themselves and drink water freely both before and after each administration.
On the other hand, in case of continuous subcutaneous administration, after the rabbits were anesthetized by injection of "Nembutal" (Trademark, 0.5 to 0.6 ml/kg i.v.), they were clipped their back side hair and then were incised their clipped parts about 3 cm long with a surgical knife. […] Subsequently, the incised parts of the rabbits were sutured with silk thread, and then the rabbits were brought back to their cage. In this case, total dosage was 2.5 mg/rabbit/day. The day when the mini-pump was implanted was defined as "Day 0". On Day 5, the rabbits were anesthetized by injection of "Nembutal" (Trademark) into the ear vein to bleed to death, and then the eyeballs were taken out therefrom. In this experiment, blood was collected for measuring a concentration of the test compound in blood on each Day 1, 4 and 5.
(§2) The eyeballs taken out were washed with physiological saline solution under ice-cooling, and subsequently divided into various parts (i.e. cornea, aqueous humor in anterior chamber of eye, iris, lens, vitreum, retinochoroid and sclera). After measuring the weight of each part, phosphate buffer solution (pH 7.4) was added thereto and then the parts were homogenized using a glass-made "Potter-type homogenizer" (Trademark).
(§3) The determination of a concentration of the test compound in each sample was carried out by the two-step Enzyme-linked immunosorbent assay (EIA) using purified polyclonal antibody against the test compound.

[2] = test system: intraocular vascularization; experiment: Suppression of induced intraocular vascularization (cupric chloride pellet and aminoadipic acid) by eye drops, histological observation; format: in vivo, rabbits (Dutch); settings: 2 mg/ml in isotonic phosphate buffer solution (pH 8), eye drops twice a day for 12 days; both eyes of five rabbits
Experimental: Both eyes of five rabbits (Dutch) were used for this experiment. Into the vitreum of the rabbits, 0.2 ml of sterilized air was injected. […] At the same time as transplantation, 1 mg of aminoadipic acid dissolved in 0.2 ml of physiological saline solution was injected into the vitreum, by which vascularization in the eyes (i.e. in the vitreum) was induced. Twenty-four hours later, isotonic phosphate buffer solution (pH 8, 2 mg/ml) which contained the same test compound used in Example 1 was administered drop by drop to each rabbit. The same administration was repeated twice a day for consecutive 12 days. After the final administration on the 12th day, the eyeballs were taken out therefrom and observed histologically to find whether the vascularization was suppressed or not.

[3] = Concentration of test compound in eye tissue and blood after transocular administration of ophthalmic solution (EIA); format: in vivo, JW (clean) strain female rabbits; settings: topical or ocular, read-out: Mean concentration in tissue ± S.E.
Experimental: The resultant preparation was filled in an instillator.
as §1
In case of transocular administration of ophthalmic solution, the rabbits were fixed on the cangue fixer and applied to each eye with one drop (about 0.05 ml) of the above ophthalmic solution using an instillator. The administration was repeated five times at 5-minute intervals. After the final administration, the rabbits were brought back to their cage. In these administrations, total dosage was 1 mg/rabbit. At 30 minutes after the final administration, blood was collected from the ear vein of the rabbits. Immediately, the rabbits were anesthetized by injection of "Nembutal" (Trademark) into the ear vein to bleed to death by cutting off their head and then the eyeballs were taken out therefrom.
as §2, §3

CNC(=O)OC1CCC2(CO2)C(C2(C)OC2CC=C(C)C)C1OC (stereo not drawn) [test compound, 6-Methylcarbamoyloxy-5-methoxy-4-[2-methyl-3-(3-methyl-2-butenyl)oxiranyl]-1-oxaspiro[2.5]octane]
concentration at 120 h ([1]; Aqueous humor in anterior chamber of eye, Day 5 of continuous subcutaneous administration (2.5 mg/rabbit/day), n = 6): 0.79 ± 0.62 ng/g | concentration at 120 h ([1]; Cornea, Day 5 of continuous subcutaneous administration (2.5 mg/rabbit/day) by mini-pump, n = 6): 2.87 ± 0.52 ng/g | concentration at 120 h ([1]; Lens, Day 5 of continuous subcutaneous administration (2.5 mg/rabbit/day), n = 6): 0.2 ± 0.08 ng/g | concentration at 120 h ([1]; Retinochoroid, Day 5 of continuous subcutaneous administration (2.5 mg/rabbit/day), n = 6): 0.6 ± 0.26 ng/g | concentration at 120 h ([1]; Sclera, Day 5 of continuous subcutaneous administration (2.5 mg/rabbit/day), n = 6): 1.06 ± 0.27 ng/g | concentration at 120 h ([1]; Vitreum, Day 5 of continuous subcutaneous administration (2.5 mg/rabbit/day), n = 6): 1.19 ± 0.23 ng/g | concentration at 24 h ([1]; Whole blood, Day 1 (n=3), continuous subcutaneous administration (2.5 mg/rabbit/day)): 30.6 ± 6.13 ng/g | concentration at 96 h ([1]; Whole blood, Day 4 (n=3), continuous subcutaneous administration (2.5 mg/rabbit/day)): 13.7 ± 9.74 ng/g | concentration at 120 h ([1]; Whole blood, Day 5 (n=3), continuous subcutaneous administration (2.5 mg/rabbit/day)): 22.5 ± 4.12 ng/g | eyeballs in which intraocular vascularization was suppressed thoroughly [2]: 42.9% | eyeballs in which the vascularization was suppressed partially or thoroughly [2]: 85.7% | concentration at 0.5 h ([3]; Aqueous humor in anterior chamber of eye, 30 min. after transocular administration of ophthalmic solution (total 1 mg/rabbit), n = 6): 141 ± 59.7 ng/g | concentration at 0.5 h ([3]; Cornea, 30 min. after transocular administration of ophthalmic solution (2 mg/ml, total 1 mg/rabbit), n = 6): 1.56 ± 0.73 ng/g | concentration at 0.5 h ([3]; Lens, 30 min. after transocular administration of ophthalmic solution (total 1 mg/rabbit), n = 6): 12.4 ± 2.11 ng/g | concentration at 0.5 h ([3]; Retinochoroid, 30 min. after transocular administration of ophthalmic solution (total 1 mg/rabbit), n = 6): 40.2 ± 9.4 ng/g | concentration at 0.5 h ([3]; Sclera, 30 min. after transocular administration of ophthalmic solution (total 1 mg/rabbit), n = 6): 0.78 ± 0.78 ng/g | concentration at 0.5 h ([3]; Vitreum, 30 min. after transocular administration of ophthalmic solution (total 1 mg/rabbit), n = 6): 9.99 ± 2.37 ng/g | concentration at 0.5 h ([3]; Whole blood (n = 3), 30 min. after transocular administration of ophthalmic solution (total 1 mg/rabbit)): 19.6 ± 4.22 ng/g
